Assays:
SMN2 Protein = experiment: SMN Protein Assay (MSD); assay type: cell-based, human; details: SMA patient fibroblasts, 48 hours, 0.6 nM to 2.5 µM
How it was run: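 SMA patient fibroblasts at 7,000 cells/well treated 48 h with compound from 0.6 nM to 2.5 µM, then lysed. SMN protein in lysate quantified by Mesoscale Discovery immunoassay against an SMN standard curve (19.5 pg/ml–1 µg/ml), giving absolute amounts.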

[1] = test system: SMN2 Splicing D7 (SMN Δ7 transcript); experiment: SMN Quantitative Splicing Assay (qPCR); assay type: cell-based, human; details: Homo sapiens, Fibroblast, 24 h, SMA patient fibroblasts (GM03813), 2.5 µM to 0.6 nM
Protocol: Spinal muscular atrophy (SMA) patient fibroblasts (GM03813, Coriell) were plated in 96-well plates at 50,000 cells/well. […] Treated cells were lysed and cDNA synthesized using the Fast Advanced Cells-to-Ct kit (Thermofisher A35378) according to the manufacturer’s instructions. 2 µL of each cDNA were used in qPCR reactions. […] Reactions were run in a Quant Studio 6 qPCR instrument with default settings.

Compound | EC50 (SMN2 Protein) [nM] | IC50 [1] [nM]
[2H]C([2H])([2H])n1ncc2cc(-c3ncc(N(C)[C@H]4C[C@@H]5CCC(N5)[C@H]4F)nn3)c(O)cc2c1=O [Compound 181] | 0.01 to 15 | 0.01 to 15
[2H]C([2H])([2H])n1ncc2cc(-c3ncc(N(C)[C@@H]4CC5CC[C@H](N5)[C@@H]4F)nn3)c(O)cc2c1=O [Compound 182] | 0.01 to 15 | 0.01 to 15
CN(c1cnc(-c2cc3cnn(C)c(=O)c3cc2O)nn1)[C@H]1C[C@@H]2CC[C@@](C)(N2)[C@H]1F [Compound 183] | 0.01 to 15 | 0.01 to 15
CN(c1cnc(-c2cc3cnn(C)c(=O)c3cc2O)nn1)C1CC2CCC(C)(N2)C1F (centres unmarked) [Compound 184] | 0.01 to 15 | 0.01 to 15
CN(c1cnc(-c2cc3cnn(C)c(=O)c3cc2O)nn1)[C@H]1C[C@]2(C)CCC(N2)[C@H]1F [Compound 185] | 0.01 to 15 | 0.01 to 15
CN(c1cnc(-c2cc3cnn(C)c(=O)c3cc2O)nn1)[C@@H]1C[C@@]2(C)CC[C@H](N2)[C@@H]1F [Compound 186] | 0.01 to 15 | 16 to 50
CN(c1cnc(-c2cc3c(F)cn(C)c(=O)c3cc2O)nn1)[C@H]1C[C@@H]2CC[C@@](C)(N2)[C@H]1F [Compound 187] | 0.01 to 15 | 0.01 to 15
CN(c1cnc(-c2cc3c(F)cn(C)c(=O)c3cc2O)nn1)[C@@H]1CC2CC[C@](C)(N2)[C@@H]1F [Compound 188] | 0.01 to 15 | 0.01 to 15
[2H]C([2H])([2H])n1nc(F)c2cc(-c3ncc(N(C)[C@H]4C[C@@H]5CCC(N5)[C@H]4F)nn3)c(O)cc2c1=O [Compound 191] | 0.01 to 15 | 0.01 to 15
[2H]C([2H])([2H])n1cc(F)c2cc(-c3ncc(N(C)[C@@H]4CC5CC[C@H](N5)[C@@H]4F)nn3)c(O)cc2c1=O [Compound 192] | 0.01 to 15 | 0.01 to 15
[2H]C([2H])([2H])N(c1cnc(-c2cc3c(F)cn(C([2H])([2H])[2H])c(=O)c3cc2O)nn1)[C@H]1C[C@@H]2CC[C@@H](N2)[C@H]1C [Compound 193] | 0.01 to 15 | 0.01 to 15
[2H]C([2H])([2H])N(c1cnc(-c2cc3c(F)cn(C([2H])([2H])[2H])c(=O)c3cc2O)nn1)[C@@H]1C[C@H]2CC[C@H](N2)[C@@H]1F [Compound 194] | 0.01 to 15 | 0.01 to 15
CN(c1cnc(-c2cc3ncn(C(F)F)c(=O)c3cc2O)nn1)[C@H]1CC2CC[C@@H](N2)[C@H]1F [Compound 195] | 0.01 to 15 | 0.01 to 15
CN(c1cnc(-c2cc3ncn(C(F)F)c(=O)c3cc2O)nn1)[C@@H]1C[C@H]2CCC(N2)[C@@H]1F [Compound 196] | 51 to 100 | 16 to 50
[2H]C([2H])([2H])N(c1cnc(-c2cc3c(F)cn(CC)c(=O)c3cc2O)nn1)[C@H]1C[C@@H]2CC[C@@H](N2)[C@H]1F [Compound 201] | 0.01 to 15 | 0.01 to 15
[2H]C([2H])([2H])N(c1cnc(-c2cc3c(F)cn(CC)c(=O)c3cc2O)nn1)[C@@H]1C[C@H]2CC[C@H](N2)[C@@H]1F [Compound 202] | 0.01 to 15 | 51 to 100
Cc1c(F)c2cc(-c3ncc(N(C)[C@H]4C[C@@H]5CC[C@@H](N5)[C@H]4F)nn3)c(O)cc2c(=O)n1C [Compound 204] | 0.01 to 15 | 0.01 to 15
Cc1nc2cc(-c3ncc(N(C)[C@H]4CC5CC[C@@H](N5)[C@H]4F)nn3)c(O)cc2c(=O)n1C [Compound 205] | 0.01 to 15 | 0.01 to 15
Cc1cc2cc(-c3ncc(N(C)[C@H]4CC5CC[C@@H](N5)[C@H]4F)nn3)c(O)cc2c(=O)n1C [Compound 206] | 0.01 to 15 | 0.01 to 15
[2H]C([2H])([2H])C([2H])([2H])n1cc(F)c2cc(-c3ncc(N(C)[C@H]4CC5CCC(N5)[C@H]4F)nn3)c(O)cc2c1=O (some centres unmarked) [Compound 208] | 0.01 to 15 | 0.01 to 15
CN(c1cnc(-c2cc3c(F)cn(C)c(=O)c3cc2O)nn1)[C@@H]1CC2CC(F)(F)C(C1)N2 (some centres unmarked) [Compound 209] | 101 to 500 | 51 to 100
CN(c1cnc(-c2cc3c(F)cn(C)c(=O)c3cc2O)nn1)[C@H]1CC2CC(F)(F)C(C1)N2 (some centres unmarked) [Compound 210] | 0.01 to 15 | 0.01 to 15
CCn1cc(F)c2cc(-c3ncc(N(C)[C@@H]4CC5CC(F)(F)C(C4)N5)nn3)c(O)cc2c1=O (some centres unmarked) [Compound 211] | 501 to 10000 | 101 to 500
CCn1cc(F)c2cc(-c3ncc(N(C)[C@H]4CC5CC(F)(F)C(C4)N5)nn3)c(O)cc2c1=O (some centres unmarked) [Compound 212] | 501 to 10000 | 51 to 100
Cc1nc2cc(-c3ncc(N(C)[C@@H]4CC5CCC(N5)[C@@H]4F)nn3)c(O)cc2c(=O)n1C (some centres unmarked) [Compound 213] | 0.01 to 15 | 16 to 50
CCn1c(C)nc2cc(-c3ncc(N(C)[C@@H]4CC5CC(F)(F)C(C4)N5)nn3)c(O)cc2c1=O (some centres unmarked) [Compound 214] | 501 to 10000 | 501 to 10000
CCn1c(C)nc2cc(-c3ncc(N(C)[C@H]4CC5CC(F)(F)C(C4)N5)nn3)c(O)cc2c1=O (some centres unmarked) [Compound 215] | 16 to 50 | 16 to 50
CCn1c(C)c(F)c2cc(-c3ncc(N(C)[C@H]4C[C@@H]5CCC(N5)[C@H]4F)nn3)c(O)cc2c1=O [Compound 223] | 0.01 to 15 | 0.01 to 15

Source: patent publication US20230331718A1, “COMPOSITIONS FOR MODULATING SPLICING” (Skyhawk Therapeutics, Inc., priority 2020, published 2023)
